The record followed here is article PMC6544261, “A novel thermostable and halophilic thioredoxin reductase from the Red Sea Atlantis II hot brine pool” (PLoS ONE, 2019).

The target in this assay is T1, ATII-TrxR (Cupriavidus basilensis, UniProt A0A643FQQ5).
T1 construct: codon-optimised synthetic gene in pET-28a(+), His-tagged, E. coli BL21(DE3), HisTrap; dimer
T1 sequence (A0A643FQQ5 1-552): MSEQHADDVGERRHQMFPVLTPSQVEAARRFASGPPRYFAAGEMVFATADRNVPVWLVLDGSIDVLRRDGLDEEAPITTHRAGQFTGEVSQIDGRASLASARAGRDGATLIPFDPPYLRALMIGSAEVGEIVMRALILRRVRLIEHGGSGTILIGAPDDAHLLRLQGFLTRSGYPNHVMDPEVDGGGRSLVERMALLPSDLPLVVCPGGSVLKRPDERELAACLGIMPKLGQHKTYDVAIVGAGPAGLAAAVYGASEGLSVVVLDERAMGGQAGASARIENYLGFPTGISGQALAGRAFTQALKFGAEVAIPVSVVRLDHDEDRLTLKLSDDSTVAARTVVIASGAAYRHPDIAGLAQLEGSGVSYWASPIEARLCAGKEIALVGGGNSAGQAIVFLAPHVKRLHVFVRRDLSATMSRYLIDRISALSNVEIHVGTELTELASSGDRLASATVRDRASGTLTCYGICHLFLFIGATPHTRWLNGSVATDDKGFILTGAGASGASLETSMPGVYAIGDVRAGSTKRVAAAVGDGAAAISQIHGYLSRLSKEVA
Description: flavin absorbance at […] nm, co-elution of […] and […] nm peaks. It counts as binding. The conditions noted are these: cofactor bound to enzyme as purified.

Consider `Cc1cc2nc3c(=O)[nH]c(=O)nc-3n(C[C@H](O)[C@H](O)[C@H](O)COP(=O)(O)OP(=O)(O)OC[C@H]3O[C@@H](n4cnc5c(N)ncnc54)[C@H](O)[C@@H]3O)c2cc1C` [FAD], for which the “mol FAD/mol native enzyme” value is on record as “The binding of ATII-TrxR protein to the cofactor FAD was confirmed”.
